Measurements: patent US12479866B2, “Boron-containing rho kinase inhibitors” (Percipiad, Inc., priority 2019, dated 2025)
Values joined by “and” are separate entries in the source; they are usually repeats but may differ in a detail not shown here. Identical values can stand only once. Like-named read-outs stand apart in the source and are kept apart here.

Tests used:
Caco-2 Permeability = format: in vitro ADME; conditions: human
Experimental: (§1) Caco-2 Permeability. Experiment was conducted by Absorption Systems. Caco-2 cells (clone C2BBe1) were obtained from American Type Culture Collection (Manassas, VA). Cell monolayers were grown to confluence on collagen-coated, microporous membranes in 12-well assay plates. The permeability assay buffer was Hanks' balanced salt solution containing 10 mM HEPES and 15 mM glucose at a pH of 7.4. The buffer in the receiver chamber also contained 1% bovine serum albumin. The dosing solution concentration was 5 μM of test article in the assay buffer. Cell monolayers were dosed on the apical side (A-to-B) or basolateral side (B-to-A) and incubated at 37° C. with 5% CO2 in a humidified incubator. Samples were taken from the donor and receiver chambers at 120 minutes. Each determination was performed in duplicate. The flux of lucifer yellow was also measured post-experimentally for each monolayer to ensure no damage was inflicted to the cell monolayers during the flux period. […] Permeability calculations were performed as per Absorption Systems protocol, Table 23.

Caco-2 cells = experiment: Caco-2 Permeability; format: in vitro ADME; conditions: Caco-2
Experimental: as §1

MDR1 = experiment: MDR1-MDCK Permeability; format: in vitro ADME; conditions: dog
Experimental: as §1, with “MDR1-MDCK” for “Caco-2”, “MDR1-MDCK cell” for “Caco-2 cells (clone C2BBe1) were obtained from American Type Culture Collection (Manassas, VA). Cell”, “post experimentally” for “post-experimentally”, “24.” for “23.”

[1] = tested on: MDR1-MDCK cell monolayers; experiment: MDR1-MDCK Permeability; format: in vitro ADME; conditions: MDR1-MDCK
Experimental: as §1, with “MDR1-MDCK” for “Caco-2”, “MDR1-MDCK cell” for “Caco-2 cells (clone C2BBe1) were obtained from American Type Culture Collection (Manassas, VA). Cell”, “post experimentally” for “post-experimentally”, “24.” for “23.”

ROCK2 = ROCK2 (Homo sapiens (Human), UniProt O75116); experiment: ROCK2 ADP-Glo kinase enzyme inhibition assay; format: biochemical
Experimental: (§2) We measured ROCK and PKA kinase enzyme activity inhibition by compounds using commercially available ROCK1 (Promega Corporation, cat #V9581), ROCK2 (Promega, cat #V4045), and PKA kinase (Promega, cat #V4247) ADP-Glo™ assay kits. ADP-Glo™ Kinase Assay is a luminescent ADP detection assay that provides a homogeneous method to measure kinase activity by quantifying the amount of ADP produced during a kinase reaction. The assay is performed in two steps. First, after the kinase reaction, an equal volume of ADP-Glo™ Reagent is added to terminate the kinase reaction and deplete the remaining ATP. Second, the Kinase Detection Reagent is added to simultaneously convert ADP to ATP and allow the newly synthesized ATP to be measured using a luciferase/luciferin reaction. The light generated is measured using a luminometer. A complete protocol is included with the kits and is also available at the Promega website. The assay is briefly described below. • 1. Diluted enzyme, substrate, ATP, and compounds (inhibitors) in Kinase Buffer (40 mM Tris, 7.5, 20 mM MgCl2, 0.1 mg/ml BSA, 50 μM DTT). • 2. Added 1 μl of inhibitor, 2 μl of enzyme and 2 μl of substrate/ATP mix to the wells of 384-well low volume nonbinding assay plate A series of three-fold dilution of inhibitor was prepared and assayed for each inhibitor. • 3. Incubated at room temperature for 60 minutes. • 4. Added 5 μl of ADP-Glo™ Reagent. • 5. Incubated at room temperature for 60 minutes. • 6. Added 10 μl of Kinase Detection Reagent • 7. Incubated at room temperature for 30 minutes.
(§3) Recorded luminescence (Integration time 1 second) using a plate-based luminometer.
(§4) Calculated Percent Enzyme Activity: First subtract the signal of the negative control (no enzyme and no inhibitor) from each sample's signal. Then use the mean relative light units (RLU) values for the 0% kinase activity (neither inhibitor nor enzyme) and the 100% kinase activity (no compound) to calculate the other percent enzyme activities remaining in the presence of the different dilutions of inhibitor.
Inhibitor stock solutions of 10 mM are made in DMSO and stored at −20° C. Dilutions were made in assay buffer immediately before use.

PKA = PKA (Homo sapiens (Human), UniProt P17612); experiment: PKA ADP-Glo kinase enzyme inhibition assay; format: biochemical; conditions: read-out: PKAIC50
Experimental: as §2, with “Added 1 μl of inhibitor, 2 μl of enzyme and 2 μl of substrate/ATP mix to the wells of 384-well low volume nonbinding assay plate A series of three-fold dilution of inhibitor was prepared and assayed for each inhibitor. • 3. Incubated at room temperature for 60 minutes. • 4. Added 5 μl of ADP-Glo™ Reagent. • 5. Incubated at room temperature for 60 minutes. • 6. Added 10 μl of Kinase Detection Reagent • 7. Incubated at room temperature for 30 minutes.” left out
as §3
Calculated Percent Enzyme Activity: First subtract the signal of the negative control (no enzyme and no inhibitor) from each sample's signal. […]

ROCK1 = ROCK1 (Homo sapiens (Human), UniProt Q13464); experiment: ROCK1 ADP-Glo kinase enzyme inhibition assay; format: biochemical
Experimental: as §2, §3
as §4, with “inhibitor. […]” for “inhibitor.”

[2] = tested on: New Zealand White rabbits; conditions: 0.1 ml of 5 mg/ml
Text: The right eye that was not treated served as the control. […] The eyes of initial and confirmatory test animals were examined with slit lamp for ocular lesions. […] The animals were also observed for clinical signs of toxicity, morbidity and mortality.

Phospho-MYPT1 Thr853 = experiment: Inhibition of MYPT1 phosphorylation in human trabecular meshwork (hTM) cells, western blot
Experimental: The outflow of aqueous humor across the trabecular meshwork (TM) is regulated by, among other factors, actomyosin contraction of the TM cells and altered extracellular matrix. ROCK is known to inhibit the phosphatase activity of myosin light chain phosphatase (MLCP) by phosphorylating MYPT1 at amino acids Thr696 and Thr853. […] Media with inhibitors was suctioned off, wells washed 2 times with cold PBS pH 7.4 buffer, and attached cells were scrapped off with 500 μl (T75 flasks) or 100 μl (6-well plates) SDS-PAGE sample buffer, and collected into 1.5 ml microcentrifuge tubes. • 5.
Two days before compound addition 6-well plates were seeded at a density of 75,000 cells/well. On the day of compound addition media was replaced with 3 ml fresh media containing compounds at different concentration. Fifteen hours after compound addition cells in each well were lysed with 0.2 ml extraction buffer (SDS-PAGE sample buffer containing […] and protease inhibitors) and extracts were collected.
Compounds (10 μM) were added to hTM cells cultured in 60 mm plates and cell extracts collected after […]. Cells were lysed with 0.2 ml lysis buffer and 20 μl extract was loaded in each lane (FIG. 7).

HEK293 cells = experiment: CellTiter-Glo Luminescent Cell Viability Assay; conditions: HEK293 cells, two days
Experimental: We used CellTiter-Glo® Luminescent Cell Viability Assay (Promega, cat #G7573) to determine the number of viable cells in culture based on quantitation of the ATP present, which signals the presence of metabolically active cells. • 1. Prepared HEK293 suspension culture cells (ThermoFisher, cat #A14635) and added 50 μl cells in media (12,500 cells) to each well of a white, opaque-walled 96-well plate in triplicate. • 2. […] Incubated at 37° C. and 5% CO2 for two days. • 4. Added 100 μl of CellTiter-Glo® Reagent to each well and mix contents for 2 minutes on an orbital shaker to induce cell lysis. • 5. Recorded luminescence using a plate luminometer.

primary hTM cells [3] = experiment: CellTox Green cytotoxicity assay in hTM cells; format: cell-based; conditions: 24 h, 48 h, 72 h
Text: Commercially available RealTime-Glo™ MT cell viability (Promega, catalog #G9712) and CellTox™ Green cytotoxicity (Promega, catalog #G8731) assays were used in assessing effect of compounds on primary hTM cell viability and cytotoxicity. The RealTime-Glo™ MT cell viability assay is a nonlytic, homogeneous, bioluminescent method that determines the number of viable cells in culture by measuring the reducing potential of cells and thus metabolism (MT). Viable cells reduce the proprietary pro-substrate to generate a substrate for NanoLuc® luciferase. This substrate diffuses from cells into the surrounding culture medium, where it is rapidly used by the NanoLuc® Enzyme to produce a luminescent signal. In a contrasting and complementary manner, CellTox™ Green cytotoxicity assay measures changes in membrane integrity that occur as a result of cell death. This assay system uses a proprietary asymmetric cyanine dye that is excluded from viable cells but preferentially stains the dead cells' DNA. […]
Human™ cells were cultured and maintained as described in Example 12. […] Light emitted by luciferase and fluorescence emitted by dye binding to DNA (excitation 485 nm and emission 525 nm) were measured at 24 h, 48 h, and 72 h after incubation using plate based luminescence and fluorescence plate readers.

hTM cells = experiment: hTM cell morphology changes (microscopy); conditions: for hTM cell morphology: 20 hours
primary hTM cells [4] = experiment: RealTime-Glo MT cell viability assay in hTM cells; format: cell-based; conditions: for Cell viability compared to DMSO controls: 30 uM and 10 μm; for Cell viability: 3.33 μm
Text: Commercially available RealTime-Glo™ MT cell viability (Promega, catalog #G9712) and CellTox™ Green cytotoxicity (Promega, catalog #G8731) assays were used in assessing effect of compounds on primary hTM cell viability and cytotoxicity. The RealTime-Glo™ MT cell viability assay is a nonlytic, homogeneous, bioluminescent method that determines the number of viable cells in culture by measuring the reducing potential of cells and thus metabolism (MT). Viable cells reduce the proprietary pro-substrate to generate a substrate for NanoLuc® luciferase. This substrate diffuses from cells into the surrounding culture medium, where it is rapidly used by the NanoLuc® Enzyme to produce a luminescent signal. In a contrasting and complementary manner, CellTox™ Green cytotoxicity assay measures changes in membrane integrity that occur as a result of cell death. This assay system uses a proprietary asymmetric cyanine dye that is excluded from viable cells but preferentially stains the dead cells' DNA. The fluorescent signal produced by the dye binding to the dead-cell DNA is proportional to cytotoxicity.
Human™ cells were cultured and maintained as described in Example 12. Fifty μl cells (600 cells) in culture media containing compound, 25 μl media with RealTime-Glo™ MT cell viability assay reagent and 25 μl media with CellTox™ Green cytotoxicity assay reagent were plated in black, clear bottom 96-well plates. Light emitted by luciferase and fluorescence emitted by dye binding to DNA (excitation 485 nm and emission 525 nm) were measured at 24 h, 48 h, and 72 h after incubation using plate based luminescence and fluorescence plate readers.

Solubility in saline = format: physicochemical

Sequence of ROCK2 (O75116 whole entry): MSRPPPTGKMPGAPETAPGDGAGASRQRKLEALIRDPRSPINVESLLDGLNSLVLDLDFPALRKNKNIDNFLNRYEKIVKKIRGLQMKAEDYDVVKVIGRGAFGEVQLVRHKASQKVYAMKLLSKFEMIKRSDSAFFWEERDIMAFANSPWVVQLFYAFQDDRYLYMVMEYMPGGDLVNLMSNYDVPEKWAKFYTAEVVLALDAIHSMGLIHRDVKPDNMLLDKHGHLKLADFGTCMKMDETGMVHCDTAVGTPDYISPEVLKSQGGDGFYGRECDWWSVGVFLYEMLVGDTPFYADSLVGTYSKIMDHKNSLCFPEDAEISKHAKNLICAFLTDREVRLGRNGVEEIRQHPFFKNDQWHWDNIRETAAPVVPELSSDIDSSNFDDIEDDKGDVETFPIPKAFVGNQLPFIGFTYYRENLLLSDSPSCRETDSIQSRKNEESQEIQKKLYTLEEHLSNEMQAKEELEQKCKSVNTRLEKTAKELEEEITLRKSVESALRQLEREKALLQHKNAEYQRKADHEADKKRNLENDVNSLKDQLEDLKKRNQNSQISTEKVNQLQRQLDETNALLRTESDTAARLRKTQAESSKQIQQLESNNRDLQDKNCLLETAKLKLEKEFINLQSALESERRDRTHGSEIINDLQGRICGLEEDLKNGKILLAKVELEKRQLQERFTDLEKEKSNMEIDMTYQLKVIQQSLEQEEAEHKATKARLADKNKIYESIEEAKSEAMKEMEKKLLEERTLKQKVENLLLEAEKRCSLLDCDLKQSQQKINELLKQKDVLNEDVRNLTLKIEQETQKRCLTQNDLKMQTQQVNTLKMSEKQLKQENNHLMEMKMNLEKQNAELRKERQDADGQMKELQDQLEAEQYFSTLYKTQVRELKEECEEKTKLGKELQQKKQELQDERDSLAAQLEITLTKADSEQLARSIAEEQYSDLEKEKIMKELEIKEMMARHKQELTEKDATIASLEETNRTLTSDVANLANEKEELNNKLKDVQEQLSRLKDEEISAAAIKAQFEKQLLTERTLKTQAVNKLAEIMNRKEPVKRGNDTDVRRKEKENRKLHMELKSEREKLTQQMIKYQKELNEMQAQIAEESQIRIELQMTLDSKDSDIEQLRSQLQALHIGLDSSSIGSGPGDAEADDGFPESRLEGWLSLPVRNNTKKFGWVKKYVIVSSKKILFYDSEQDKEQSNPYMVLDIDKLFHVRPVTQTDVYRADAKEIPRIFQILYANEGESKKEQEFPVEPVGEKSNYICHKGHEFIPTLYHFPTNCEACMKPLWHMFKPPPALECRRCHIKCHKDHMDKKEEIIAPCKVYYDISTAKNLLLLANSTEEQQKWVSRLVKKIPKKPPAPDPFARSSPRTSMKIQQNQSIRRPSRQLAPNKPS
Sequence of ROCK1 (Q13464 whole entry): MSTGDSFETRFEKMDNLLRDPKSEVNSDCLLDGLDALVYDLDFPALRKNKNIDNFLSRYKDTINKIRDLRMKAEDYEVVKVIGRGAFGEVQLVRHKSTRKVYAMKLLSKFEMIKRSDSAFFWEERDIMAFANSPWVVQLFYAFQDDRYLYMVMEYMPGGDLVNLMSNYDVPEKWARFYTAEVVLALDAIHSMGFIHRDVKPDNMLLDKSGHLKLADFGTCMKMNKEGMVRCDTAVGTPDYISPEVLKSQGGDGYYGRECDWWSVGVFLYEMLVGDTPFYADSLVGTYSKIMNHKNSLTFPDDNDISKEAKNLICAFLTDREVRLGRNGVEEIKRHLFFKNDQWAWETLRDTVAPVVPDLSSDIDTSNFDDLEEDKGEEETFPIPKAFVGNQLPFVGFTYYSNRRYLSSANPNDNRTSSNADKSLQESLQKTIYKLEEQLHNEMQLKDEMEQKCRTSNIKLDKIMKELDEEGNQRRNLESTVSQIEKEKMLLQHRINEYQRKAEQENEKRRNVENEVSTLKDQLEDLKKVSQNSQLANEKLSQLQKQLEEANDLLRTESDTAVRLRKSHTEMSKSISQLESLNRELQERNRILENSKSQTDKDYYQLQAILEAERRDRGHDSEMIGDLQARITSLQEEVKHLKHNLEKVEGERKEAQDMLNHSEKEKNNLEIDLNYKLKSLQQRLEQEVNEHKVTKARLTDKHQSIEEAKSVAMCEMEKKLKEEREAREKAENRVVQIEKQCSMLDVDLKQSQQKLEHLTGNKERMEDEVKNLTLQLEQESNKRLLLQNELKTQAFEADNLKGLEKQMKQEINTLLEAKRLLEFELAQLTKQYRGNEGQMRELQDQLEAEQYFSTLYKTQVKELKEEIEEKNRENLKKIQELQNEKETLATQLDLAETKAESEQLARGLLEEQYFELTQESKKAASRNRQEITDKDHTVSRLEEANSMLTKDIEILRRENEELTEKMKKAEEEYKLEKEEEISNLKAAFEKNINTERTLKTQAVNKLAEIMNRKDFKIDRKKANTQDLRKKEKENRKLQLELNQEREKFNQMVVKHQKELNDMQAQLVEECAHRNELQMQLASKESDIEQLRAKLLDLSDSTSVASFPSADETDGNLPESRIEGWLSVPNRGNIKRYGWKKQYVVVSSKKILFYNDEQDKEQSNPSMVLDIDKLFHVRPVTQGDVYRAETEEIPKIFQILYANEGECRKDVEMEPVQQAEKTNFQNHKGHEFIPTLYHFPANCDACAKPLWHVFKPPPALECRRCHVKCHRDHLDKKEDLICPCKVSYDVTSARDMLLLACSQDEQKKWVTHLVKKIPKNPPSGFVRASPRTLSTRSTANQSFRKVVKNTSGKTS

## Cl.Cl.NCC(C(=O)Nc1ccc2cnccc2c1)c1ccc(B(O)O)cc1 (centres unmarked) [Compound 10]
Caco-2 Permeability; Caco-2, pH 7.4
  efflux ratio at 120 min, 5 μM: 2.58
Caco-2 Permeability; Caco-2, pH 7.4, A to B
  recovery at 120 min, 5 μM: 108%
Caco-2 Permeability; Caco-2, pH 7.4, A to B, read-out: Papp Avg
  Papp at 120 min, 5 μM: 0.192 ×10⁻⁶ cm/s
Caco-2 Permeability; Caco-2, pH 7.4, A to B, read-out: Papp R1
  Papp at 120 min, 5 μM: 0.209 ×10⁻⁶ cm/s
Caco-2 Permeability; Caco-2, pH 7.4, A to B, read-out: Papp R2
  Papp at 120 min, 5 μM: 0.176 ×10⁻⁶ cm/s
Caco-2 Permeability; Caco-2, pH 7.4, B to A
  recovery at 120 min, 5 μM: 103%
Caco-2 Permeability; Caco-2, pH 7.4, B to A, read-out: Papp Avg
  Papp at 120 min, 5 μM: 0.496 ×10⁻⁶ cm/s
Caco-2 Permeability; Caco-2, pH 7.4, B to A, read-out: Papp R1
  Papp at 120 min, 5 μM: 0.565 ×10⁻⁶ cm/s
Caco-2 Permeability; Caco-2, pH 7.4, B to A, read-out: Papp R2
  Papp at 120 min, 5 μM: 0.426 ×10⁻⁶ cm/s
Caco-2 cells
  Absorption Potential Classification: low (Papp(A to B) < 1 × 10^−6 cm/s: low)
  Significant Efflux: No
MDR1; MDCK-MDR1, pH 7.4, A to B
  recovery at 120 min, 5 μM: 95.5%
MDR1; MDCK-MDR1, pH 7.4, A to B, read-out: Papp Avg
  Papp at 120 min, 5 μM: < 0.0566 ×10⁻⁶ cm/s
MDR1; MDCK-MDR1, pH 7.4, A to B, read-out: Papp R1
  Papp at 120 min, 5 μM: < 0.0566 ×10⁻⁶ cm/s
MDR1; MDCK-MDR1, pH 7.4, A to B, read-out: Papp R2
  Papp at 120 min, 5 μM: < 0.0566 ×10⁻⁶ cm/s
MDR1; MDCK-MDR1, pH 7.4, B to A
  recovery at 120 min, 5 μM: 91.1%
MDR1; MDCK-MDR1, pH 7.4, B to A, read-out: Papp Avg
  Papp at 120 min, 5 μM: < 0.0772 ×10⁻⁶ cm/s
MDR1; MDCK-MDR1, pH 7.4, B to A, read-out: Papp R2
  Papp at 120 min, 5 μM: < 0.0772 ×10⁻⁶ cm/s
[1]
  Brain Penetration Classification: low
ROCK2; Exp #1, read-out: ROCK2 IC50(Exp #1)
  IC50: 27 nM
ROCK2; Exp #2, read-out: ROCK2 IC50(Exp #2)
  IC50: 26 nM
ROCK2; Exp #3, read-out: ROCK2 IC50(Exp #3)
  IC50: 26 nM and 15 nM
ROCK2; average of two lots of compound 10 and compound 10.2HCl, read-out: average IC50 estimate against ROCK2
  IC50: 25 nM
PKA
  IC50: 52 nM
ROCK1; average of two lots of compound 10 and compound 10.2HCl, read-out: average IC50 estimate against ROCK1
  IC50: 84 nM
ROCK1; read-out: ROCK1 IC50
  IC50: 137 nM and 62 nM

## Cc1ccc(C(=O)OCc2ccc([C@@H](CN)C(=O)Nc3ccc4cnccc4c3)cc2)c(C)c1.Cl.Cl [Netarsudil.2HCl]
[2]
  eye irritation classification: irritating
  mean score Iris: 2.0
  mean score conjunctival oedema (chemosis): 4.0
  mean score conjunctival redness: 3.0
  mean score corneal opacity: 3.0
Phospho-MYPT1 Thr853; 2.5 μM inhibitors
  Inhibition of MYPT1 Thr853 phosphorylation (western blot): inhibited phosphorylation of MYPT1
Phospho-MYPT1 Thr853; 10 μM inhibitors, 7 hours
  Inhibition of MYPT1 Thr853 phosphorylation (western blot): completely inhibited MYPT1 phosphorylation
Phospho-MYPT1 Thr853; 10 μM, fifteen hours
  Amount of protein in lane (toxicity): much lower amount of protein because of toxicity
HEK293 cells; 2.5 μM
  reduction in ATP levels: 80%
HEK293 cells; 25 μM
  reduction in ATP levels: 96%
Primary hTM cells [3]
  Cytotoxicity / membrane integrity (in words): concentration dependent
hTM cells; 10 μM
  hTM cell morphology: became small and round
hTM cells; […] and 3.3 μM
  hTM cell morphology: started contracting and detaching from plate
hTM cells; hTM cells, 30, 10, 3.33, or 1.11 μM, 24 hours
  cellular morphological changes: affected cell morphology starting at 1.11 μM showing cell contraction and becoming round and small at 10 μM
Primary hTM cells [4]; 1.11 μM
  reduction in viability: 10%
Primary hTM cells [4]; within 24 h
  Cell viability compared to DMSO controls: < 2%
Primary hTM cells [4]; within 48 h
  Cell viability compared to DMSO controls: < 0.1%
Primary hTM cells [4]; 24 h
  Cell viability: 53%
Primary hTM cells [4]; 48 h
  Cell viability: 15%
Primary hTM cells [4]; 72 h
  Cell viability: 9%
Solubility in saline
  solubility in saline: ≤ 5000 µg/mL
